Entries after “also recorded” stand apart in the source; their conditions may differ. Like-named read-outs stand apart in the source and are kept apart here.
Assays:
[1] = tested on: STAM model of non-alcoholic steatohepatitis; assay: STAM model of NASH: liver triglyceride content; assay type: in vivo, mice; conditions: for Liver triglyceride (mean ± SD): n = 8
Procedure: (§1) NASH was induced in 48 male mice by a single subcutaneous injection of 200 μg streptozotocin (STZ, Sigma-Aldrich, USA) solution 2 days after birth and feeding with high fat diet (HFD, 57 kcal % fat, Cat #HFD32, CLEA Japan, Inc., Japan) after 4 weeks of age.
(§2) Compound A was administered at 3 dose levels of 10, 20 and 40 mg/kg once daily from 6 to 9 weeks of age. Compound B was administered at a dose of 40 mg/kg once daily from 6 to 9 weeks of age. Telmisartan was administered at a dose of 10 mg/kg once daily from 6 to 9 weeks of age.
Liver total lipid-extracts were obtained by Folch's method (Folch J. et al., J. Biol. Chem. 1957; 226: 497). Liver samples were homogenized in chloroform-methanol (2:1, v/v) and incubated overnight at room temperature. After washing with chloroform-methanol-water (8:4:3, v/v/v), the extracts were evaporated to dryness, and dissolved in isopropanol. Liver triglyceride content was measured by Triglyceride E-test (FUJIFILM Wako Pure Chemical Corporation, Japan).

[2] = tested on: STAM model of non-alcoholic steatohepatitis; assay: STAM model of NASH: Alpha-SMA immunostaining; assay type: in vivo, mice; conditions: for Alpha-SMA-positive area (mean ± SD): n = 8
Procedure: NASH was induced in 48 male mice by a single subcutaneous injection of 200 μg streptozotocin (STZ, Sigma-Aldrich, USA) solution 2 days after birth and feeding with high fat diet (HFD, 57 kcal % fat, Cat #HFD32, CLEA Japan, Inc., Japan) after 4 weeks of age. Compound A was administered at 3 dose levels of 10, 20 and 40 mg/kg once daily from 6 to 9 weeks of age. Compound B was administered at a dose of 40 mg/kg once daily from 6 to 9 weeks of age. Telmisartan was administered at a dose of 10 mg/kg once daily from 6 to 9 weeks of age. […] (Table 9 herein after)

[3] = tested on: STAM model of non-alcoholic steatohepatitis; assay: STAM model of NASH: Sirius red staining, fibrosis area; assay type: in vivo, mice; conditions: for Sirius red-positive area (fibrosis area, mean ± SD): n = 8
Procedure: (§3) NASH was induced in 48 male mice by a single subcutaneous injection of 200 μg streptozotocin (STZ, Sigma-Aldrich, USA) solution 2 days after birth and feeding with high fat diet (HFD, 57 kcal % fat, Cat #HFD32, CLEA Japan, Inc., Japan) after 4 weeks of age. Compound A was administered at 3 dose levels of 10, 20 and 40 mg/kg once daily from 6 to 9 weeks of age. Compound B was administered at a dose of 40 mg/kg once daily from 6 to 9 weeks of age. Telmisartan was administered at a dose of 10 mg/kg once daily from 6 to 9 weeks of age. For HE staining, sections were cut from paraffin blocks of liver tissue prefixed in Bouin's solution and stained with Lillie-Mayer's Hematoxylin (Muto Pure Chemicals Co., Ltd., Japan) and eosin solution (FUJIFILM Wako Pure Chemical Corporation). NAFLD Activity score (NAS) was calculated according to the criteria of Kleiner (Kleiner D E. et al., Hepatology, 2005; 41:1313). To visualize collagen deposition, Bouin's fixed liver sections were stained using picro-Sirius red solution (Waldeck, Germany). For quantitative analysis of fibrosis area, bright field images of Sirius red-stained sections were captured around the central vein using a digital camera (DFC295; Leica, Germany) at 200-fold magnification, and the positive areas in 5 fields/section were measured using ImageJ software (National Institute of Health, USA).

[4] = tested on: STAM model of non-alcoholic steatohepatitis; assay: STAM model of NASH: HE staining and NAFLD Activity score; assay type: in vivo, mice; design: key to NAFLD Activity score (mean ± SD): NAFLD Activity score per Kleiner et al. 2005 criteria
Procedure: as §3

[5] = tested on: STAM model of non-alcoholic steatohepatitis; assay: STAM model of NASH: F4/80 immunostaining; assay type: in vivo, mice; conditions: for F4/80-positive area (mean ± SD): n = 8
Procedure: as §1, §2

[6] = tested on: STAM model of non-alcoholic steatohepatitis; assay: STAM model of NASH: plasma ALT; assay type: in vivo, mice; conditions: for Plasma ALT (mean ± SD): n = 8
Procedure: NASH was induced in 48 male mice by a single subcutaneous injection of 200 μg streptozotocin (STZ, Sigma-Aldrich, USA) solution 2 days after birth and feeding with high fat diet (HFD, 57 kcal % fat, Cat #HFD32, CLEA Japan, Inc., Japan) after 4 weeks of age. Compound A was administered at 3 dose levels of 10, 20 and 40 mg/kg once daily from 6 to 9 weeks of age. Compound B was administered at a dose of 40 mg/kg once daily from 6 to 9 weeks of age. Telmisartan was administered at a dose of 10 mg/kg once daily from 6 to 9 weeks of age. For plasma biochemistry, non-fasting blood was collected in polypropylene tubes with anticoagulant (Novo-Heparin, Mochida Pharmaceutical Co. Ltd., Japan) and centrifuged at 1,000×g for 15 minutes at 4° C. The supernatant was collected and stored at −80° C. until use. Plasma ALT was measured by FUJI DRI-CHEM 7000 (Fujifilm, Japan).

[7] = tested on: STAM model of non-alcoholic steatohepatitis; assay type: in vivo; conditions: for Liver weight (mean ± SD) / Liver-to-body weight ratio (mean ± SD): n = 8
Excerpt: To prepare dosing solution, Compound A and B were weighed and suspended in Vehicle which was composed of 20% of Vehicle-A1 and 80% of Vehicle-A2. Vehicle-A1 was composed of 0.5% (w/v) Carboxymethyl cellulose (CMC) 400-800 centipoises in water for injection+2.5% (w/v) Tween 80. Vehicle-A2 was composed of 0.5% (w/v) Carboxymethyl cellulose (CMC) 400-800 centipoises in water for injection. Telmisartan (Micardis®) was purchased from Boehringer Ingelheim GmbH (Germany) and dissolved in pure water.
as §1
Compound A and B, and Telmisartan were administered orally in a volume of 10 mL/kg.
as §2
C57BL/6 mice (14-day-pregnant female) were obtained from Japan SLC, Inc. (Japan). All animals used in the study were housed and cared for in accordance with the Japanese Pharmacological Society Guidelines for Animal Use.
Group 1: Vehicle Eight NASH mice were orally administered vehicle [20% of Vehicle-A1 and 80% of Vehicle-A2] in a volume of 10 mL/kg once daily from 6 to 9 weeks of age.
Eight NASH mice were orally administered vehicle supplemented with Compound A at a dose of 10 mg/kg once daily from 6 to 9 weeks of age.
Eight NASH mice were orally administered vehicle supplemented with Compound A at a dose of 20 mg/kg once daily from 6 to 9 weeks of age.
Eight NASH mice were orally administered vehicle supplemented with Compound A at a dose of 40 mg/kg once daily from 6 to 9 weeks of age.
Eight NASH mice were orally administered vehicle supplemented with Compound B at a dose of 40 mg/kg once daily from 6 to 9 weeks of age.
Eight NASH mice were orally administered pure water supplemented with Telmisartan at a dose of 10 mg/kg once daily from 6 to 9 weeks of age.
The viability, clinical signs and behavior were monitored daily. Body weight was recorded before the treatment. […] The animals were sacrificed at 9 weeks of age by exsanguination through direct cardiac puncture under isoflurane anesthesia (Pfizer Inc.).

[8] = 40 mg/kg PO QD (Compound B group)
[9] = 40 mg/kg PO QD, 6-9 wks of age (Compound A high, Compound B groups)
[10] = 40 mg/kg PO QD (Compound A high, Compound B groups)
[11] = 40 mg/kg PO QD, 6-9 wks of age (Compound A high, Compound B groups), n = 8
[12] = summary statement, dose not stated
[13] = 10 mg/kg PO QD (Telmisartan group)
[14] = 10 mg/kg PO QD, 6-9 wks of age (Compound A low, Telmisartan groups)
[15] = 10 mg/kg PO QD (Compound A low, Telmisartan groups)
[16] = 10 mg/kg PO QD, 6-9 wks of age (Compound A low, Telmisartan groups), n = 8

## O=C(O)[C@H]1O[C@@H](N(c2ccc(OC(F)(F)F)cc2)c2ccc3cccc(Cl)c3n2)[C@H](O)[C@@H](O)[C@@H]1O [Compound B]
[1]; [8]
  Liver triglyceride content compared with the Vehicle group: tended to increase; also recorded: increasing trends
[1]; [9]
  Liver triglyceride (mean ± SD): 82.9 ± 32.6 mg/g liver
[2]; [9]
  Alpha-SMA-positive area (mean ± SD): 1.17 ± 0.79%
[3]; [8]
  Fibrosis area (Sirius red-positive area) compared with the Vehicle group: tended to increase; also recorded: increasing trends
[3]; [9]
  Sirius red-positive area (fibrosis area, mean ± SD): 0.94 ± 0.23%
[4]; [10]
  NAS compared with the Vehicle group: tended to decrease; also recorded: decreasing trend
[4]; [11]
  Hepatocyte ballooning score 0 (None), number of mice: 5
  Hepatocyte ballooning score 1 (Few balloon cells), number of mice: 2
  Hepatocyte ballooning score 2 (Many cells/prominent ballooning), number of mice: 1
  Lobular inflammation score 2 (2-4 foci/200×), number of mice: 3
  Lobular inflammation score 3 (>4 foci/200×), number of mice: 5
  NAFLD Activity score (mean ± SD): 3.6 ± 1.2
  Steatosis score 0 (<5%), number of mice: 4
  Steatosis score 1 (5-33%), number of mice: 4
[4]; conclusion of the study
  Overall effect in this NASH model: potential anti-NAS effect
[4]; [12]
  NAS compared with the Vehicle group: decreasing trends
[5]; [10]
  F4/80-positive area compared with the Vehicle group: tended to decrease
[5]; [9]
  F4/80-positive area (mean ± SD): 1.90 ± 0.89%
[6]; [10]
  Plasma ALT level compared with the Vehicle group: tended to increase; also recorded: increasing trends
[6]; [9]
  Plasma ALT (mean ± SD): 72 ± 24 U/L
[7]; [10]
  Mean liver weight compared with the Vehicle group: tended to increase
  Mean liver-to-body weight ratio compared with the Vehicle group: tended to increase
[7]; [9]
  Liver weight (mean ± SD): 1606 ± 227 mg
  Liver-to-body weight ratio (mean ± SD): 8.1 ± 1.1%

## CCCc1nc2c(C)cc(-c3nc4ccccc4n3C)cc2n1Cc1ccc(-c2ccccc2C(=O)O)cc1 [Telmisartan, reference compound]
[1]; [13]
  Liver triglyceride content compared with the Vehicle group: tended to decrease; also recorded: decreasing trend
[1]; [14]
  Liver triglyceride (mean ± SD): 41.5 ± 16.9 mg/g liver
[2]; [13]
  Alpha-SMA-positive area compared with the Vehicle group: tended to decrease
[2]; [14]
  Alpha-SMA-positive area (mean ± SD): 0.83 ± 0.26%
[3]; [14]
  Sirius red-positive area (fibrosis area, mean ± SD): 0.70 ± 0.13%
[4]; [15]
  NAS compared with the Vehicle group: significant decrease
[4]; [16]
  Hepatocyte ballooning score 0 (None), number of mice: 7
  Hepatocyte ballooning score 1 (Few balloon cells), number of mice: 1
  Lobular inflammation score 2 (2-4 foci/200×), number of mice: 4
  Lobular inflammation score 3 (>4 foci/200×), number of mice: 4
  NAFLD Activity score (mean ± SD): 2.8 ± 0.7
  Steatosis score 0 (<5%), number of mice: 7
  Steatosis score 1 (5-33%), number of mice: 1
[5]; [14]
  F4/80-positive area (mean ± SD): 3.03 ± 0.95%
[6]; [15]
  Plasma ALT level compared with the Vehicle group: no significant difference
[6]; [14]
  Plasma ALT (mean ± SD): 56 ± 14 U/L
[7]; [15]
  Mean liver weight compared with the Vehicle group: significant decrease
  Mean liver-to-body weight ratio compared with the Vehicle group: tended to decrease
[7]; [14]
  Liver weight (mean ± SD): 1115 ± 78 mg
  Liver-to-body weight ratio (mean ± SD): 6.5 ± 0.4%

## O=C(O)[C@H]1O[C@@H](N(c2ccc(OC(F)(F)F)cc2)c2ccc3cccc(Cl)c3n2)[C@H](O)[C@@H](O)[C@@H]1O [drawing 253]
[4]; [12]
  NAS compared with the Vehicle group: decreasing trend

From patent US11992499B2, “Quinoline derivatives for use in the treatment of inflammation diseases” (ABIVAX, priority 2018, dated 2024)
